Source: a melting point compilation (Tetko et al.; mined from patent text by program, amines drawn as free bases though some values may be those of a salt)

Q: Which melting point does the source give for `c1ccc(Sc2sc(-c3ccccc3)cc2-c2ccccc2)cc1` here?
A: The melting point was 96 to 97 °C.

Q: For `COn1c(=O)c2ccccc2n(-c2c(Cl)ccc(C)c2Cl)c1=O`, which melting point is on record?
A: Its melting point is 211 to 213 °C.

Q: With `Oc1cc(O)cc(/C=C/c2ccccc2)c1` as the compound, how does the melting point read?
A: The melting point was 157 to 158 °C.

Q: With `CON1CCC(C#N)(NO)CC1` as the compound, how does the melting point read?
A: Its melting point is 130 to 131 °C.

Q: With `CC(O)(CCCC(F)(F)C(F)(F)C(F)(F)C(F)(F)C(F)(F)C(F)(F)F)CCCC(F)(F)C(F)(F)C(F)(F)C(F)(F)C(F)(F)C(F)(F)F` as the compound, how does the melting point read?
A: Its melting point is 46 to 47 °C.

Q: For `CCCCCCCCS(=O)(=O)c1ccc(CC(COC(C)=O)(COC(C)=O)NC(C)=O)cc1`, which melting point is on record?
A: Its melting point is 98 to 100 °C.

Q: For `CCC(CC)c1[nH]c(C)c(C(C)=O)c1C`, which melting point is on record?
A: The melting point was 186 to 189 °C.

Q: With `COC(=O)C1=C(C)N=C(OC)N(C(=O)NCCCC(=O)OC(C)(C)C)C1c1ccc(F)cc1` (stereo not given) as the compound, how does the melting point read?
A: The melting point was 135 to 138 °C.

Q: For `CCCCc1ncc(/C=C2\C(=O)NC(=O)N2c2ccccc2)n1Cc1ccc(C(=O)O)cc1`, which melting point is on record?
A: Its melting point is 286 to 290 °C.

Q: Which melting point does the source give for `Cc1cccc(OCC2=NCCN2C(=O)Oc2cccc(C)c2C)c1C` here?
A: The melting point was 126 to 127 °C.

Q: Which melting point does the source give for `O=C(c1cc2ccc(O)cc2[nH]1)N1CCC(Cc2ccc(F)cc2)CC1` here?
A: Its melting point is 180 to 182 °C.

Q: Which melting point does the source give for `O[C@@H](CNCCOc1ccc2oc(-c3ccon3)cc2c1)COc1ccccc1F` here?
A: Its melting point is 109 to 110 °C.

Q: With `Cc1ncncc1C(=O)Nc1ccc(-n2nc(C(F)(F)F)cc2C2CC2)c(F)c1` as the compound, how does the melting point read?
A: The melting point was 101 to 103 °C.

Q: For `Cc1sc(S(C)(=O)=O)nc1-c1ccccc1`, which melting point is on record?
A: The melting point was 114 to 115 °C.

Q: For `COc1ccc2c(c1)C(=O)c1c-2c(NCCCN(C)C)nc2ccccc12`, which melting point is on record?
A: Its melting point is 113 to 114 °C.

Q: With `C=C1C(=O)N(C)CCC1(O)c1cccc(OC)c1` (stereo not given) as the compound, how does the melting point read?
A: The melting point was 127 to 128 °C.

Q: For `O=C1CCC(c2ccc3[nH]c(-c4cccc(C(F)(F)F)c4)cc3c2)=NN1`, which melting point is on record?
A: Its melting point is 215 to 218 °C.

Q: With `CCN(Cc1cc(Br)ccc1OCc1ccccc1)c1ncc(C(=O)NS(=O)(=O)c2ccccc2)s1` as the compound, how does the melting point read?
A: Its melting point is 140 to 145 °C.

Q: With `CCOCCn1cc2c(=O)[nH]c(=O)[nH]c2n1` as the compound, how does the melting point read?
A: The melting point was over 300 °C.

Q: For `O[C@H]1c2cc3ccccc3cc2[C@H](O)c2cc3ccccc3cc21`, which melting point is on record?
A: The melting point was 235 °C.

Q: With `N#Cc1c(N2CCN(C(=O)c3cccs3)CC2)c2ccccc2n(Cc2ccc(F)cc2)c1=O` as the compound, how does the melting point read?
A: Its melting point is 258 °C.

Q: With `Cc1ccc(-c2cccc(/C=C/C(=O)Nc3ccc(CN(C)CC#N)cc3)c2)cc1` as the compound, how does the melting point read?
A: The melting point was 163 to 165 °C.

Q: For `CCCCCCCCC(SCCCC)C(=O)Nc1cccc2cnccc12` (stereo not given), which melting point is on record?
A: The melting point was 73 to 75 °C.

Q: With `CN1C(=O)CC[C@]2(C)c3ccc(-c4ccc(O)c(C=O)c4)cc3CC[C@@H]12` as the compound, how does the melting point read?
A: The melting point was 184 to 187 °C.

Q: With `CCN1C(=O)C(=CC=C2C=C(c3ccccc3)C=C3N2c2ccccc2C3(C)C)C(=O)N(CC)C1=S` as the compound, how does the melting point read?
A: Its melting point is over 310 °C.

Q: For `CC(=O)Oc1c(C)cc(C=CC(=O)Nc2cnc3c(C)cc(C)cc3c2-c2ccccc2Cl)c(C)c1C`, which melting point is on record?
A: The melting point was 233 to 234 °C.

Q: For `CNC(=O)c1cccc(Cl)c1Nc1nc(Nc2ccc3c(c2)CCCC(=O)N3CCOC)ncc1Cl`, which melting point is on record?
A: The melting point was 136 to 157 °C.

Q: Which melting point does the source give for `O=C(O)CNCCn1nc(-c2c(-c3ccccc3)nn3ccccc23)ccc1=O` here?
A: Its melting point is 230 to 232 °C.

Q: Which melting point does the source give for `CCCc1nc2c(N)nc3cc(OCCOCc4ccccc4)ccc3c2s1` here?
A: Its melting point is 142 to 145 °C.

Q: With `CCCC[C@H](NC(=O)[C@H](CC(C)C)NC(=O)c1ccccc1C)C(=O)CSCc1ccco1` as the compound, how does the melting point read?
A: The melting point was 118 to 119 °C.

Q: With `Cc1nnc(-c2ccc3occ(-c4cc(Cl)ccc4F)c3c2)o1` as the compound, how does the melting point read?
A: The melting point was 187 to 188 °C.

Q: With `O=C(C=Cc1ccsc1)Nc1nnn[nH]1` as the compound, how does the melting point read?
A: The melting point was 273 to 274 °C.

Q: Which melting point does the source give for `NCCCc1csc(N=C2NCCCN2)n1` here?
A: Its melting point is 116 °C.

Q: For `NC(=O)c1c(NC(=O)C2CC2)sc2c1CCC(F)(F)C2`, which melting point is on record?
A: Its melting point is 207 to 208 °C.

Q: Which melting point does the source give for `Oc1ccc2cc(OCC(O)CCc3cccnc3)ccc2c1` (stereo not given) here?
A: The melting point was 165 to 166 °C.

Q: For `Cn1cc(C2=C(c3cn(CCCNC(N)=O)c4ccccc34)C(=O)NC2=O)c2ccccc21`, which melting point is on record?
A: Its melting point is 248 to 250 °C.

Q: With `COC(=O)c1ccc2cc(OCc3ccccc3)ccc2c1` as the compound, how does the melting point read?
A: The melting point was 148 to 149 °C.

Q: Which melting point does the source give for `CC(C)(C)n1cc(C#N)c2cc([N+](=O)[O-])cnc21` here?
A: Its melting point is 216 to 218 °C.

Q: Which melting point does the source give for `N#CC(CC1CCCCC1)c1ccc(Cl)cc1Cl` (stereo not given) here?
A: The melting point was 58.8 °C.

Q: For `Nc1ncc(F)cc1I`, which melting point is on record?
A: Its melting point is 70 °C.

Q: For `Cc1onc(NS(=O)(=O)c2ccc([N+](=O)[O-])cc2)c1Br`, which melting point is on record?
A: Its melting point is 161 to 163 °C.

Q: With `Nc1ccc(CC(NC(=O)C(c2ccccc2)c2ccccc2)c2ccccc2)cc1` (stereo not given) as the compound, how does the melting point read?
A: The melting point was 161 to 163 °C.

Q: With `COC(=O)C(=O)N(N=C(C#N)c1ccc(C#N)cc1)c1c(Cl)cc(C(F)(F)F)cc1Cl` as the compound, how does the melting point read?
A: Its melting point is 194 to 195 °C.

Q: For `CC(C)(C)OC(=O)N1CCC(O)(CS(N)(=O)=O)CC1`, which melting point is on record?
A: The melting point was 176 to 180 °C.

Q: For `COc1ccc(C(=O)NS(=O)(=O)C=Cc2ccc(Cl)c(Cl)c2)cc1OC`, which melting point is on record?
A: The melting point was 145 to 147 °C.

Q: With `O=C(c1ccc2nonc2c1)N1CCCC1` as the compound, how does the melting point read?
A: The melting point was 97.8 to 99.3 °C.

Q: For `O=[N+]([O-])c1ccc(NCCc2ccccc2)c(S(=O)(=O)CCO)c1`, which melting point is on record?
A: The melting point was 95 to 95.5 °C.

Q: With `O=c1[nH]nc2n1C=Cc1ccccc1C2c1ccccc1` (stereo not given) as the compound, how does the melting point read?
A: Its melting point is 258 to 260 °C.

Q: Which melting point does the source give for `O=C(N[C@H]1CC[C@H](CCN2CCC(c3cccc4c3CCO4)CC2)CC1)C1CC1` here?
A: The melting point was 208 °C.

Q: Which melting point does the source give for `O=C(O)Cn1cc(Cc2nc3c(F)c(F)cc(F)c3s2)c2cc(Oc3ccccc3)ccc21` here?
A: Its melting point is 128 to 130 °C.
